# Measurements taken from patent publication US10854312B2, “Selective peptide antagonists” (BIONIZ, LLC, priority 2013, dated 2020).
# “Also recorded” adds a separate entry of the source. No end group written: not given here.
# Columns and labels:
# Format in all cases: cell-based
# [1] = system: IL-15 signaling (STAT5, PI3kinase-Akt, MAP-kinase branches); assay: Western blot of phosphorylation downstream of IL-15 in PT-18β cells; conditions: 1 nM human IL-15, 0.5 μM BNZ132-1
# Protocol: FIG. 9A-FIG. 9C present comprehensive inhibition by BN132-1 of signaling events caused by target γc-cytokines. […] Cells have been fasted of IL-3 for 12 h and then stimulated with 1 nM human IL-15 (Peprotech) in the presence or absence of 0.5 μM BNZ132-1 for 15 min before extraction of cellular proteins. Phosphorylation of the relevant molecules were detected using antibodies against each phosphor-proteins (Cell Signaling), followed by the ECL technique (Thermo Scientific). Lanes: 1. no stimulation, 2. IL-15 (1 nM), 3. IL-15 (1 nM)+BNZ132-1 (0.5 μM).
# Cellular proliferation often represents a combination of several independent signaling pathways, and inhibiting one signaling branch […] the proliferation. […] FIG. 9A-FIG. 9C show comprehensive inhibition of the signal transduction pathways downstream of IL-15/IL-15 receptor system in PT-18 cells by BNZ 132-1. PT-18β cells have been withdrawn of IL-15 for overnight to induce into proliferative quiescence (no-stimulation). To restimulate the cells, 1 nM of IL-15 was added in the presence or absence of BNZ132-1 (0.5 μM). After […], cell lysates were collected and phosphorylation of key mediators of major signaling branches were determined by western blotting.
# mouse IL-4 signal = assay: Western blot of phosphorylation downstream of IL-4 in PT-18 cells; conditions: 1 nM mouse IL-4, excess dose of BNZ132-1, 15 min
# Protocol: PT-18 cells32 were fasted of IL-3 for 12 h prior to stimulation. Cells were stimulated with 1 nM mouse IL-4 or mouse IL-9 in the presence or absence of excess dose of BNZ132-1 ([…]) for 15 min and then cellular proteins were extracted. Phosphorylation of the indicated proteins was detected using phosphor-specific antibodies (Cell signaling), followed by ECL. IL-4 is the only γc-cytokine that induces the phosphorylation of STAT6. Note that only IL-4, but not IL-9, induced the tyrosine-phosphorylation of STAT6. […] Lanes: 1. no stimulation, 2. IL-4, 3. IL-4+BNZ132-1, 4. IL-9, 5. IL-9+BNZ132-1
# mouse IL-9 = assay: PT-18 proliferation assay (WST-1), IL-9; conditions: murine PT-18 cells, 1 nM mouse IL-9, BNZ132-1 50 nM, 500 nM, 5 μM
# Protocol: FIG. 6A-FIG. 6E presents inhibitory spectrum of BNZ132-1 over γc- and non-γc-cytokines. […] Neutralizing antibodies against each cytokine (R & D systems, 5 μg ml^−1) were included as controls. After 20 h, the cells were pulsed with WST-1 (Clontech) and OD450 of each well was measured after 6 h. A 19-mer scrambled peptide was used as a negative control at 5 μM. The experiments were conducted in triplicate (applies to all experiments in FIG. 6A-FIG. 6E). The result represents one of at least three independent experiments (applies to all experiments in FIG. 6A-FIG. 6E). […] In PT-18 proliferation assay, PT-18β or PT-18h21Rα cells were withdrawn of mouse IL-3 for 12 h before the experiment. Cells were then incubated with 1 nM of mouse IL-4, mouse IL-9, or mouse IL-21 in the presence or absence of the indicated doses (μM) of BNZ132-1. Neutralizing antibodies to each cytokine (5 μg ml^−1, except for anti-mouse IL-21 polyclonal antibody which was used at 15 μg ml−1) and a scrambled control peptide (5 μM) were included as negative controls. WST-1 assay was conducted as described above. […] In PT-18 h21Rα survival assay, PT-18h21Rα cells are described in the text. […] Both parental and hIL-21Rα positive PT-18 cells were washed and incubated without IL-3 for 12 h before the assay. […] The Y-axis represents the cpm (count per minute) values measured by a β-counter. […]
sequence,measurement,setting,value
IKEFLQRFIHIVQSIINTS [BNZ132-1],inhibition of IL-15 signaling (phosphorylation of key signaling molecules),[1],comprehensively inhibited; also recorded: near-complete inhibition
same,"inhibition of IL-4 signal transduction (phosphorylation, STAT6)",mouse IL-4 signal,does not interfere; also recorded: not inhibited
same,inhibition of IL-9-induced proliferation of PT-18 cells,mouse IL-9,partially inhibited; also recorded: inhibition of IL-9
